A short description of the assay: APP processing: AlphaLisa assay of secreted Aβ40 and Aβ42 from SP4CT cells. Type of assay: cell-based. The following applies: Homo sapiens, SH-SY5Y cells expressing amyloid β protein (SP4CT cells). Here is the method: APP Processing (Assay Quantitates Secreted Aβ Analytes from Cell Lines):
The effect of compounds on the abundance of Aβ40 and Aβ42 peptides generated from SH-SY5Y cells expressing amyloid β protein (SP4CT cells) are determined by an AlphaLisa™ assay. Analogous to an ELISA assay, generation of […] AlphaLisa™ assay requires “donor” and “acceptor” beads to be brought in close proximity by specific antibody recognition of either Aβ40 or Aβ42 peptides. The assay is accomplished by removing media from compound-treated SP4CT cells to two different microplates, followed by the addition of donor beads conjugated with streptavidin binding a biotinylated anti-amyloid β monocolonal antibody (clone 4G8). Acceptor beads directly conjugated with anti-Aβ40 monoclonal antibody (G210) are added to one microplate and anti-Aβ42 monoclonal antibody (12F4) acceptor beads were added to the other. Abundance of Aβ40 and Aβ42 is directly proportional to the luminescent signal generated following excitation of donor beads by laser light.
(In general: Alpha assays give light when donor and acceptor beads are brought close together.)

Where [1] appears, read: read-out: IC50, inhibition of production of Aβ40 peptide.
[2] abbreviates: read-out: IC50, inhibition of production of Aβ42 peptide.

Read-outs that look alike come from different tables or passages of the source.

The IC50 is the point on the concentration scale where inhibition reaches its midpoint. Regarding `CCn1nc(Oc2ccc(C(F)(F)F)cc2)cc1-c1cccc(C2(NS(=O)(=O)NC3CCCC3)CC2)c1` [Example 29, N-cyclopentyl-N′-[1-(3-{1-ethyl-3-[4-(trifluoromethyl)phenoxy]-1H-pyrazol-5-yl}phenyl)cyclopropyl] sulfamide], the half-inhibitory concentration (IC50) runs as follows: under setting [1], less than 200 nM; under setting [2], less than 200 nM.

On to `CCn1nc(Oc2ccc(C(F)(F)F)cc2)cc1-c1cccc(C2(NS(=O)(=O)NCC(C)C)CC2)c1` [Example 30, N-[1-(3-{1-ethyl-3-[4-(trifluoromethyl)phenoxy]-1H-pyrazo1-5-yl}phenyl)cyclopropyl]-N′-isobutylsulfamide], for which the IC50 was less than 200 nM under setting [1] and less than 200 nM under setting [2].

As to `CCn1nc(Oc2ccc(C(F)(F)F)cc2)cc1-c1cccc(C2(NS(=O)(=O)CC(F)(F)F)CC2)c1` [Example 31, N-[1-(3-{1-ethyl-3-[4-(trifluoromethyl)phenoxy]-1H-pyrazol-5-yl}phenyl)cyclopropyl]-2,2,2-trifluoroethanesulfonamide], the IC50 under setting [1] was less than 200 nM and the IC50 under setting [2] was less than 200 nM.

As for `CCn1nc(Oc2ccc(C(F)(F)F)cn2)cc1-c1cccc(C2(NS(=O)(=O)CC(F)(F)F)CC2)c1` [Example 32, N-{1-[3-(1-ethyl-3-{[5-(trifluoromethyl)pyridin-2-yl]oxy}-1H-pyrazol-5-yl)phenyl]cyclopropyl}-2,2,2-trifluoroethanesulfonamide], the IC50 was less than 200 nM under setting [1] and less than 200 nM under setting [2].

Turning to `CCCNS(=O)(=O)NC1(c2cccc(-c3cc(Oc4ccc(C(F)(F)F)cc4)nn3CC)c2)CC1` [Example 33, N-[1-(3-{1-ethyl-3-[4-(trifluoromethyl)phenoxy]-1H-pyrazol-5-yl}phenyl)cyclopropyl]-N′-propylsulfamide], the IC50 under setting [1] is less than 200 nM and the IC50 under setting [2] is less than 200 nM.

As to `CCn1nc(Oc2ccc(C(F)(F)F)cc2)cc1-c1cccc(C2(NS(=O)(=O)NC)CC2)c1` [Example 34, N-[1-(3-{1-ethyl-3-[4-(trifluoromethyl)phenoxy]-1H-pyrazol-5-yl}phenyl)cyclopropyl]-N′-methylsulfamide], the IC50 runs as follows: under setting [1], less than 200 nM; under setting [2], less than 200 nM.

As to `CCn1nc(-c2cccc(C3(NS(=O)(=O)NC4CCCC4)CC3)c2)cc1Oc1ccc(C(F)(F)F)cc1` [Example 35, N-cyclopentyl-N′-[1-(3-{1-ethyl-5-[4-(trifluoromethyl)phenoxy]-1H-pyrazol-3-yl}phenyl)cyclopropyl] sulfamide], the IC50 by setting is: under setting [1], less than 200 nM; under setting [2], less than 200 nM.

`CCn1nc(-c2cccc(C3(NS(=O)(=O)NCC(F)(F)F)CC3)c2)cc1Oc1ccc(C(F)(F)F)cc1` [Example 36, N-[1-(3-{1-ethyl-5-[4-(trifluoromethyl)phenoxy]-1H-pyrazol-3-yl}phenyl)cyclopropyl]-N′-(2,2,2-trifluoroethyl)sulfamide]: the IC50 runs as follows: under setting [1], less than 200 nM; under setting [2], less than 200 nM.

As to `CCn1nc(-c2cccc(C3(NS(=O)(=O)CC4CCC4)CC3)c2)cc1Oc1ccc(C(F)(F)F)cc1` [Example 37, 1-cyclobutyl-N-[1-(3-{1-ethyl-5-[4-(trifluoromethyl)phenoxy]-1H-pyrazol-3-yl}phenyl)cyclopropyl] methanesulfonamide], the IC50 under setting [1] was less than 200 nM and the IC50 under setting [2] is less than 200 nM.

In the case of `CCn1nc(-c2cccc(C3(NS(=O)(=O)CC)CC3)c2)cc1Oc1ccc(C(F)(F)F)cc1` [Example 38, N-[1-(3-{1-ethyl-5-[4-(trifluoromethyl)phenoxy]-1H-pyrazol-3-yl}phenyl)cyclopropyl] ethanesulfonamide], the IC50 under setting [1] is less than 200 nM and the IC50 under setting [2] is less than 200 nM.

As to `CCn1nc(-c2cccc(C3(NS(=O)(=O)CC(F)(F)F)CC3)c2)cc1Oc1ncc(C(F)(F)F)cc1Cl` [Example 39, N-{1-[3-(5-{[3-chloro-5-(trifluoromethyl)pyridin-2-yl]oxy}-1-ethyl-1H-pyrazol-3-yl)phenyl]cyclopropyl}-2,2,2-trifluoroethanesulfonamide], the half-inhibitory concentration (IC50) reads like this: under setting [1], less than 200 nM; under setting [2], less than 200 nM.

On to `CCn1nc(-c2cccc(C3(NS(=O)(=O)CC(F)(F)F)CC3)c2)cc1Oc1ccc(C(F)(F)F)nc1` [Example 40, N-{1-[3-(1-ethyl-5-{[6-(trifluoromethyl)pyridin-3-yl]oxy}-1H-pyrazol-3-yl)phenyl]cyclopropyl}-2,2,2-trifluoroethanesulfonamide], for which the IC50 under setting [1] was less than 200 nM and the IC50 under setting [2] was less than 200 nM.

As to `CCn1nc(-c2cccc(C3(NS(=O)(=O)NCC(F)(F)F)CC3)c2)cc1Oc1ccc(C(F)(F)F)cn1` [Example 41, N-{1-[3-(1-ethyl-5-{[5-(trifluoromethyl)pyridin-2-yl]oxy}-1H-pyrazol-3-yl)phenyl]cyclopropyl}-N′-(2,2,2-trifluoroethyl)sulfamide], the IC50 is less than 200 nM under setting [1] and less than 200 nM under setting [2].

Regarding `CCn1nc(-c2cccc(C3(NS(=O)(=O)CC4CCC4)CC3)c2)cc1Oc1ccc(C(F)(F)F)cn1` [Example 42, 1-cyclobutyl-N-{1-[3-(1-ethyl-5-{[5-(trifluoromethyl)pyridin-2-yl]oxy}-1H-pyrazol-3-yl)phenyl]cyclopropyl} methanesulfonamide], the IC50 under setting [1] was less than 200 nM and the concentration for half-maximal inhibition (IC50) under setting [2] was less than 200 nM.

On to `CCn1nc(-c2cccc(C3(NS(=O)(=O)NC4CCC4)CC3)c2)cc1Oc1ccc(C(F)(F)F)cn1` [Example 43, N-cyclobutyl-N′-{1-[3-(1-ethyl-5-{[5-(trifluoromethyl)pyridin-2-yl]oxy}-1H-pyrazol-3-yl)phenyl]cyclopropyl} sulfamide], for which the half-maximal inhibitory concentration (IC50) reads like this: under setting [1], less than 200 nM; under setting [2], less than 200 nM.

As for `CCn1nc(-c2cccc(C3(NS(=O)(=O)CC(F)(F)F)CC3)c2)cc1Oc1ccc(C(F)(F)F)cn1` [Example 44, N-{1-[3-(1-ethyl-5-{[5-(trifluoromethyl)pyridin-2-yl]oxy}-1H-pyrazol-3-yl)phenyl]cyclopropyl}-2,2,2-trifluoroethanesulfonamide], the IC50 under setting [1] is less than 200 nM and the IC50 under setting [2] was less than 200 nM.

Turning to `CCn1nc(-c2cccc(C3(NS(=O)(=O)NC)CC3)c2)cc1Oc1ccc(C(F)(F)F)cn1` [Example 45, N-{1-[3-(1-ethyl-5-{[5-(trifluoromethyl)pyridin-2-yl]oxy}-1H-pyrazol-3-yl)phenyl]cyclopropyl}-N′-methylsulfamide], the IC50 is, setting by setting: under setting [1], less than 200 nM; under setting [2], less than 200 nM.

On to `CCCNS(=O)(=O)NC1(c2cccc(-c3cc(Oc4ccc(C(F)(F)F)cc4)n(CC)n3)c2)CC1` [Example 46, N-[1-(3-{1-ethyl-5-[4-(trifluoromethyl)phenoxy]-1H-pyrazol-3-yl}phenyl)cyclopropyl]-N′-propylsulfamide], for which the IC50 was less than 200 nM under setting [1] and less than 200 nM under setting [2].

As for `CCn1nc(-c2cccc(C3(NS(=O)(=O)NCC(C)C)CC3)c2)cc1Oc1ccc(C(F)(F)F)cc1` [Example 47, N-[1-(3-{1-ethyl-5-[4-(trifluoromethyl)phenoxy]-1H-pyrazol-3-yl}phenyl)cyclopropyl]-N′-isobutylsulfamide], the IC50 under setting [1] is less than 200 nM and the IC50 under setting [2] is less than 200 nM.

On to `CCn1nc(-c2cccc(C3(NS(=O)(=O)NC)CC3)c2)cc1Oc1ccc(C(F)(F)F)cc1` [Example 48, N-[1-(3-{1-ethyl-5-[4-(trifluoromethyl)phenoxy]-1H-pyrazol-3-yl}phenyl)cyclopropyl]-N′-methylsulfamide], for which the IC50 under setting [1] is less than 200 nM and the IC50 under setting [2] is less than 200 nM.

As to `CCn1nc(-c2cccc(C3(NS(=O)(=O)CC(F)(F)F)CC3)c2)cc1Oc1ncc(F)cn1` [Example 49, N-[1-(3-{1-ethyl-5-[(5-fluoropyrimidin-2-yl)oxy]-1H-pyrazol-3-yl}phenyl)cyclopropyl]-2,2,2-trifluoroethanesulfonamide], the IC50 is less than 200 nM under setting [1] and less than 200 nM under setting [2].

Turning to `CCn1nc(-c2cccc(C3(NS(=O)(=O)CC(F)(F)F)CC3)c2)cc1Oc1ccncc1` [Example 50, N-(1-{3-[1-ethyl-5-(pyridin-4-yloxy)-1H-pyrazol-3-yl]phenyl}cyclopropyl)-2,2,2-trifluoroethanesulfonamide], the IC50 by setting is: under setting [1], less than 200 nM; under setting [2], less than 200 nM.

In the case of `CCn1nc(-c2cccc(C3(NS(=O)(=O)CC(F)(F)F)CC3)n2)cc1Oc1ccc(C(F)(F)F)cc1` [Example 51, N-[1-(6-{1-ethyl-5-[4-(trifluoromethyl)phenoxy]-1H-pyrazol-3-yl}pyridin-2-yl)cyclopropyl]-2,2,2-trifluoroethanesulfonamide], the IC50 runs as follows: under setting [1], less than 200 nM; under setting [2], less than 200 nM.

As to `CCn1nc(-c2cncc(C3(NS(=O)(=O)CC(F)(F)F)CC3)c2)cc1Oc1ccc(C(F)(F)F)cc1` [Example 52, N-[1-(5-{1-ethyl-5-[4-(trifluoromethyl)phenoxy]-1H-pyrazol-3-yl}pyridin-3-yl)cyclopropyl]-2,2,2-trifluoroethanesulfonamide], the IC50 runs as follows: under setting [1], less than 200 nM; under setting [2], less than 200 nM.

Turning to `CCn1nc(Oc2ccc(F)cc2)cc1-c1cccc(C(C)(C)NS(=O)(=O)NC2CCC2)c1` [Example 54, N-cyclobutyl-N′-(1-{3-[1-ethyl-3-(4-fluorophenoxy)-1H-pyrazol-5-yl]phenyl}-1-methylethyl)sulfamide], the IC50 reads like this: under setting [1], less than 200 nM; under setting [2], less than 200 nM.

`CCn1nc(Oc2ccc(F)cc2)cc1-c1cccc(C(C)(C)NS(=O)(=O)NCC(F)(F)F)c1` [Example 55, N-(1-{3-[1-ethyl-3-(4-fluorophenoxy)-1H-pyrazol-5-yl]phenyl}-1-methylethyl)-N'-(2,2,2-trifluoroethyl)sulfamide]: the IC50 by setting is: under setting [1], less than 200 nM; under setting [2], less than 200 nM.

The record behind these values is patent publication US8871796B2, “Diaryl ether derivatives as notch sparing gamma secretase inhibitors” (Merck Sharp & Dohme Corp., priority 2009, dated 2014).
